The text below walks through data of US20130096156A1 (priority 2010, published 2013).

For one series, the system named is Phytophthora infestans. Description: whole plant or invertebrate. The series is classed as in vivo. The settings on record: in Solanum lycopersicum, foliar, read-out: inhibit fungal infestation (percent disease control compared to untreated).
Series [1] has as its system Blumeria graminis f. sp. tritici (Erysiphe graminis f. sp. tritici). Description: Blumeria graminis f. sp. tritici / wheat / leaf disc preventative (powdery mildew on wheat). Type of series: in vivo. The conditions noted are these: foliar, wheat leaf segments cv. Kanzler, inoculated 1 day after application, assessed 6-8 days after application, read-out: inhibit fungal infestation (percent disease control compared to untreated). As for the experimental part:
(§1) Leaf disks of various plant species (diameter 14 mm) are cut from plants grown in the greenhouse. The cut leaf disks are placed in multiwell plates (24-well format) onto water agar. Immediately after cutting the leaf disks are sprayed with a test solution.
(§2) Compounds to be tested are prepared as DMSO solutions (max. 10 mg/ml). Just before spraying the solutions are diluted to the appropriate concentrations with 0.025% Tween20. After drying, the leaf disks are inoculated with a spore suspension of the appropriate pathogenic fungus.
(§3) After an incubation time of 3-7 days after inoculation at defined conditions (temp, rH, light, etc.) according to the respective test system, the activity of the test compound is assessed as antifungal activity.
Wheat leaf segments cv. Kanzler are placed on agar in a multiwell plate (24-well format) and sprayed with the formulated test compound diluted in water. The leaf disks are inoculated by shaking powdery mildew infected plants above the test plates 1 day after application. The inoculated leaf disks are incubated at 20° C. and 60% rh under a light regime of 24 h darkness followed by 12 h light/12 h darkness in a climate chamber and the activity of a compound is assessed as percent disease control compared to untreated when an appropriate level of disease damage appears on untreated check leaf segments (6-8 days after application).

For another series, the system named is Pythium ultimum. Description: Pythium ultimum / liquid culture (seedling damping off). Type of series: cell-based. The settings on record: Globisporangium ultimum, liquid culture in PDB, 24° C., 2-3 days after application, read-out: inhibit fungal infestation (inhibition of growth determined photometrically). The method, then: Mycelia fragments or conidia suspensions of a fungus, prepared either freshly from liquid cultures of the fungus or from cryogenic storage, are directly mixed into nutrient broth. DMSO solutions of the test compound (max. 10 mg/ml) is diluted with 0.025% Tween20 by factor 50 and 10 μl of this solution is pipetted into a microtiter plate (96-well format) and the nutrient broth containing the fungal spores/mycelia fragments is then added to give an end concentration of the tested compound. The test plates are incubated at 24° C. and 96% rH in the dark. The inhibition of fungal growth is determined photometrically after 2-6 days and antifungal activity is calculated.
Mycelia fragments and oospores of a newly grown liquid culture of the fungus are directly mixed into nutrient broth (PDB potato dextrose broth). After placing a (DMSO) solution of test compound into a microtiter plate (96-well format), the nutrient broth containing the fungal mycelia/spore mixture is added. The test plates are incubated at 24° C. and the inhibition of growth is determined photometrically 2-3 days after application.

Another series relates to Plasmopara viticola. Description: Plasmopara viticola / grape / leaf disc preventative. The series is classed as in vivo. The conditions noted are these: foliar, grape vine leaf disks, inoculated 1 day after application, assessed 6-8 days after application, read-out: inhibit fungal infestation (percent disease control compared to untreated). As for the experimental part:
as §1, §2, §3
Grape vine leaf disks are placed on water agar in multiwell plates (24-well format) and sprayed with the formulated test compound diluted in water. The leaf disks are inoculated with a spore suspension of the fungus 1 day after application. The inoculated leaf disks are incubated at 19° C. and 80% rh under a light regime of 12 h light/12 h darkness in a climate cabinet and the activity of a compound is assessed as percent disease control compared to untreated when an appropriate level of disease damage appears in untreated check leaf disks (6-8 days after application).

Molecules are shown by their SMILES. Like-named read-outs stand apart in the source and are kept apart here.

Molecule `CCc1cnc2ccc(OC(CC)C(=O)NC3(C)CCC3)cc2c1` (stereo not shown) [Compound 30, 2-(3-Ethyl-quinolin-6-yloxy)-N-(1-methyl-cyclobutyl)-butyramide] gave a melting point of 110 to 112 °C. The inhibition at 200 ppm in the series on Phytophthora infestans is ≥ 80%. The inhibition at 200 ppm in series [1] was ≥ 80%. Further, the inhibition at 200 ppm in the series on Pythium ultimum was ≥ 80%.

The molecule `CCc1cnc2ccc(OC(CC)C(=O)NC(C)(C#N)COC)cc2c1` (stereo not shown) [Compound 32, N-(1-Cyano-2-methoxy-1-methyl-ethyl)-2-(3-ethyl-quinolin-6-yloxy)-butyramide] displayed a melting point of 114 to 117 °C. Further, the inhibition at 200 ppm in series [1] is ≥ 80%.

`CSC(Oc1cc(C)c2ncc(C)cc2c1)C(=O)NC1(C)CCC1` (stereo not shown) [Compound 9, 2-(3,8-Dimethyl-quinolin-6-yloxy)-N-(1-methyl-cyclobutyl)-2-methylsulfanyl-acetamide]: the melting point was in the range of 150 to 151 °C. Also, the inhibition at 200 ppm in the series with Phytophthora infestans was ≥ 80%. In series [1], the inhibition at 200 ppm was ≥ 80%. In addition, the inhibition at 200 ppm with Plasmopara viticola is ≥ 80%. In addition, the inhibition at 200 ppm in the series on Pythium ultimum was ≥ 80%.

With `CCc1cnc2c(C)cc(OC(SC)C(=O)NC(C)(C)C#CCOC)cc2c1` (stereo not shown) [Compound 20, 2-(3-Ethyl-8-methyl-quinolin-6-yloxy)-N-(4-methoxy-1,1-dimethyl-but-2-ynyl)-2-methylsulfanyl-acetamide], the melting point lay in the range of 137 to 138 °C. Further, the inhibition at 200 ppm in the series with Phytophthora infestans is ≥ 80%. Further, in the series with Plasmopara viticola, the inhibition at 200 ppm is ≥ 80%. The inhibition at 200 ppm with Pythium ultimum is ≥ 80%.

Turning to `CCC(C)(C)NC(=O)C(Oc1ccc2ncc(C)cc2c1)SC` (stereo not shown) [Compound 5, N-(1,1-Dimethyl-propyl)-2-(3-methyl-quinolin-6-yloxy)-2-methylsulfanyl-acetamide], the melting point lay within 103 to 104 °C. Besides, the inhibition at 200 ppm with Phytophthora infestans is ≥ 80%. Besides, in the series with Pythium ultimum, the inhibition at 200 ppm is ≥ 80%.

Regarding `CC#CC(C)(C)NC(=O)C(Oc1cc(C)c2ncc(CC)cc2c1)SC` (stereo not shown) [Compound 19, N-(1,1-Dimethyl-but-2-ynyl)-2-(3-ethyl-8-methyl-quinolin-6-yloxy)-2-methylsulfanyl-acetamide], the melting point was in the range of 166 to 167 °C. For the same molecule, in the series with Phytophthora infestans, the inhibition at 200 ppm is ≥ 80%. Also, in the series on Plasmopara viticola, the inhibition at 200 ppm was ≥ 80%. The inhibition at 200 ppm in the series on Pythium ultimum is ≥ 80%.

`CCc1cnc2c(C)cc(OC(SC)C(=O)NC3CCC3)cc2c1` (stereo not shown) [Compound 21, N-Cyclobutyl-2-(3-ethyl-8-methyl-quinolin-6-yloxy)-2-methylsulfanyl-acetamide] gave a melting point of 157 to 158 °C. Also, the inhibition at 200 ppm with Phytophthora infestans is ≥ 80%. For the same molecule, the inhibition at 200 ppm with Plasmopara viticola is ≥ 80%. Besides, the inhibition at 200 ppm with Pythium ultimum is ≥ 80%.

With `CCc1cnc2c(Cl)cc(OC(SC)C(=O)NC3(C)CCC3)cc2c1` (stereo not shown) [Compound 28, 2-(8-Chloro-3-ethyl-quinolin-6-yloxy)-N-(1-methyl-cyclobutyl)-2-methylsulfanyl-acetamide], the melting point was in the range of 148 to 150 °C. Besides, in series [1], the inhibition at 200 ppm is ≥ 80%. Besides, the inhibition at 200 ppm in the series on Plasmopara viticola is ≥ 80%. Further, the inhibition at 200 ppm in the series on Pythium ultimum is ≥ 80%.

Take `COCC(C)(C#N)NC(=O)C(Oc1cc(C)c2ncc(C)cc2c1)SC` (stereo not shown) [Compound 11, N-(1-Cyano-2-methoxy-1-methyl-ethyl)-2-(3,8-dimethyl-quinolin-6-yloxy)-2-methylsulfanyl-acetamide]: the melting point lay in the range of 115 to 117 °C. Also, in series [1], the inhibition at 200 ppm is ≥ 80%. In addition, the inhibition at 200 ppm with Pythium ultimum was ≥ 80%.

Molecule `C=Cc1cnc2ccc(OC(CC)C(=O)NC(C)(C#N)COC)cc2c1` (stereo not shown) [Compound 39, N-(1-Cyano-2-methoxy-1-methyl-ethyl)-2-(3-vinyl-quinolin-6-yloxy)-butyramide] showed a melting point of 120 to 125 °C. In addition, the inhibition at 200 ppm in series [1] is ≥ 80%. Moreover, the inhibition at 200 ppm in the series on Pythium ultimum is ≥ 80%.

`CCc1cnc2c(C)cc(OC(SC)C(=O)NC(C)(C)C)cc2c1` (stereo not shown) [Compound 17, N-tert-Butyl-2-(3-ethyl-8-methyl-quinolin-6-yloxy)-2-methylsulfanyl-acetamide] came in with a melting point of 153 to 154 °C. The inhibition at 200 ppm in the series with Phytophthora infestans was ≥ 80%. Further, the inhibition at 200 ppm with Plasmopara viticola is ≥ 80%. Moreover, in the series with Pythium ultimum, the inhibition at 200 ppm is ≥ 80%.

Take `CCc1cnc2c(C)cc(OC(SC)C(=O)NC3(C)CCC3)cc2c1` (stereo not shown) [Compound 22, 2-(3-Ethyl-8-methyl-quinolin-6-yloxy)-N-(1-methyl-cyclobutyl)-2-methylsulfanyl-acetamide]: the melting point lay within 150 to 151 °C. Also, in the series on Phytophthora infestans, the inhibition at 200 ppm was ≥ 80%. The inhibition at 200 ppm with Plasmopara viticola is ≥ 80%. The inhibition at 200 ppm in the series on Pythium ultimum was ≥ 80%.

Turning to `C=Cc1cnc2c(Cl)cc(OC(OC)C(=O)NC(C)C)cc2c1` (stereo not shown) [Compound 40, 2-(8-Chloro-3-vinyl-quinolin-6-yloxy)-N-iso-propyl-2-methoxy-acetamide], the melting point lay in the range of 108 to 112 °C. Also, the inhibition at 200 ppm in series [1] was ≥ 80%.

In the case of `CSC(Oc1ccc2ncc(C)cc2c1)C(=O)NC(C)(C)C` (stereo not shown) [Compound 1, N-tert-Butyl-2-(3-methyl-quinolin-6-yloxy)-2-methylsulfanyl-acetamide], the melting point is 126 to 127 °C. Moreover, the inhibition at 200 ppm with Phytophthora infestans was ≥ 80%. In series [1], the inhibition at 200 ppm was ≥ 80%. Also, in the series with Pythium ultimum, the inhibition at 200 ppm is ≥ 80%.

The molecule `C=Cc1cnc2c(Cl)cc(OC(CC)C(=O)NC(C)(C)C)cc2c1` (stereo not shown) had a melting point of 100 to 102 °C.

Consider `C=Cc1cnc2c(F)cc(OC(SC)C(=O)NC(C)CC)cc2c1` (stereo not shown) [Compound 38, N-sec-Butyl-2-(8-fluoro-3-vinyl-quinolin-6-yloxy)-2-methylsulfanyl-acetamide], for which the melting point lay in the range of 110 to 112 °C. In series [1], the inhibition at 200 ppm was ≥ 80%. Further, the inhibition at 200 ppm in the series on Pythium ultimum was ≥ 80%.

With `CCc1cnc2ccc(OC(CC)C(=O)NC(C)(C)/C=N/OC)cc2c1` (stereo not shown) [Compound 31], the melting point is 125 to 127 °C. The inhibition at 200 ppm in the series with Phytophthora infestans was ≥ 80%. For the same molecule, in series [1] (in Triticum aestivum), the inhibition at 200 ppm is ≥ 80%. Further, the inhibition at 200 ppm with Pythium ultimum was ≥ 80%.

As for `CCc1cnc2c(Cl)cc(OC(SC)C(=O)NC(C)(C)C#CCOC)cc2c1` (stereo not shown) [Compound 27, 2-(8-Chloro-3-ethyl-quinolin-6-yloxy)-N-(4-methoxy-1,1-dimethyl-but-2-ynyl)-2-methylsulfanyl-acetamide], the melting point was 139 to 142 °C. In addition, the inhibition at 200 ppm in the series with Phytophthora infestans is ≥ 80%. For the same molecule, the inhibition at 200 ppm in series [1] is ≥ 80%. Further, the inhibition at 200 ppm in the series on Plasmopara viticola was ≥ 80%.

Turning to `CCc1cnc2c(Cl)cc(OC(SC)C(=O)NC3CCC3)cc2c1` (stereo not shown), the melting point lay in the range of 154 to 156 °C.

The molecule `CC#CC(C)(C)NC(=O)C(Oc1cc(Cl)c2ncc(CC)cc2c1)SC` (stereo not shown) had a melting point of 186 to 188 °C.

Turning to `C=Cc1cnc2c(Cl)cc(OC(SC)C(=O)NC(C)(C)C#N)cc2c1` (stereo not shown), the melting point fell in the range of 138 to 141 °C.

The molecule `COCC#CC(C)(C)NC(=O)C(Oc1ccc2ncc(C)cc2c1)SC` (stereo not shown) [Compound 4, N-(4-Methoxy-1,1-dimethyl-but-2-ynyl)-2-(3-methyl-quinolin-6-yloxy)-2-methylsulfanyl-acetamide] returned a melting point of 100 to 102 °C. Besides, the inhibition at 200 ppm in the series with Phytophthora infestans was ≥ 80%. In series [1], the inhibition at 200 ppm was ≥ 80%. For the same molecule, the inhibition at 200 ppm in the series on Pythium ultimum was ≥ 80%.

For `CCc1cnc2ccc(OC(CC)C(=O)NC(C)(C)C#CCOC)cc2c1` (stereo not shown) [Compound 29, 2-(3-Ethyl-quinolin-6-yloxy)-N-(4-methoxy-1,1-dimethyl-but-2-ynyl)-butyramide], the melting point was 99 to 101 °C. In the series on Phytophthora infestans, the inhibition at 200 ppm is ≥ 80%. The inhibition at 200 ppm in series [1] is ≥ 80%. In addition, the inhibition at 200 ppm in the series with Pythium ultimum was ≥ 80%.
